Our source for the remaining activity values is PMC8286840, “Identifying SARS-CoV-2 antiviral compounds by screening for small molecule inhibitors of Nsp3 papain-like protease” (Biochemical Journal, 2021).

Counter-ions that a name gives are not always drawn. Like-named read-outs stand apart in the source and are kept apart here.

Experiment [1] addresses T1, SARS-CoV-2 PLpro (nsp3 1564–1878) (Severe acute respiratory syndrome coronavirus 2, UniProt P0DTD1). Kind of experiment: biochemical. Further details: FRET-quenched peptide (Pro3) cleavage by PLpro, 10 min pre-incubation, slope over 20 min, normalised to no-compound control. The note with it: high concentration screen, read-out: % of control remaining.
Experiment [2] addresses T1, SARS-CoV-2 PLpro (nsp3 1564–1878). Kind of experiment: biochemical. Further details: FRET-quenched peptide (Pro3) cleavage by PLpro, 10 min pre-incubation, slope over 20 min, normalised to no-compound control. The note with it: low concentration screen, read-out: % of control remaining.
Procedure: The plates were organized with columns 3–22 containing the compounds; the remaining columns were used for reaction controls including substrate only and substrate with enzyme but no compound (Figure 3Aii). The PLpro enzyme was pre-incubated with the compounds for 10 min, and then the reaction was initiated by the addition of substrate. […] We incubated the inhibitors with PLpro before the enzymatic reaction so that the slow-binding inhibitors will not be missed out [21]. […] Fluorescence was read on a Spark multimode microplate reader (Tecan) with an excitation wavelength at 330 nm and emission wavelength at 420 nm. […] An amount of 5 µl of the enzyme was pre-incubated with compounds for 10 min before the addition of 15 µl substrate. Fluorescence was monitored at 2 min for 20 min with 3 min intervals giving a total of seven readings.

As for `C[C@H](O)C(=O)C1=Nc2c(nc(N)[nH]c2=O)NC1` [Sepiapterin], in experiment [1] (Well no.=1183), the remaining activity at 3.75 µM was found to be 96.3%. The remaining activity at 1.25 µM in experiment [2] (Well no.=1183) is 99.7%.
As for `COc1ccc(Nc2nc(N)nc(CN3CCCCC3)n2)cc1` [BRD32048], the remaining activity at 3.75 µM in experiment [1] (Well no.=5572) worked out at 98.9%. In addition, the remaining activity at 1.25 µM in experiment [2] (Well no.=5572) worked out at 91.7%.
For `COc1cc(C(=O)OCCCN2CCCN(CCCOC(=O)c3cc(OC)c(OC)c(OC)c3)CC2)cc(OC)c1OC` [Dilazep], the remaining activity at 3.75 µM in experiment [1] (Well no.=1931) was 99.9%. The remaining activity at 1.25 µM in experiment [2] (Well no.=1931) stood at 100%.
Take `Nc1[nH]nc2nnc(-c3c(-c4ccccc4)nn4ccccc34)cc12` [ERK Inhibitor II, FR180204]: in experiment [1] (Well no.=2454), the remaining activity at 3.75 µM was 103%. For the same molecule, the remaining activity at 1.25 µM in experiment [2] (Well no.=2454) was 103%.
Turning to `CCCNC(=O)[C@H]1O[C@@H]1C(=O)N[C@H](C(=O)N1CCC[C@H]1C(=O)OC)[C@@H](C)CC` [CA-074 methyl ester], the remaining activity at 3.75 µM in experiment [1] (Well no.=8166) was 100%. The remaining activity at 1.25 µM in experiment [2] (Well no.=8166) is 105%.
Take `NOCC(=O)O` [O-(Carboxymethyl)hydroxylamine hemihydrochloride]: the remaining activity at 3.75 µM in experiment [1] (Well no.=15) was found to be 102%. Besides, the remaining activity at 1.25 µM in experiment [2] (Well no.=15) amounted to 103%.
As for `C[C@H](c1ccc(F)cc1CCCC(=O)O)N(c1cc(F)ccc1F)S(=O)(=O)c1ccc(Cl)cc1` [4-[2-((1R)-1-{[(4-chlorophenyl)sulfonyl]-2,5-difluoroanilino}ethyl)-5-fluorophenyl]butanoic acid], in experiment [1] (Well no.=5465), the remaining activity at 3.75 µM came to 102%. Also, the remaining activity at 1.25 µM in experiment [2] (Well no.=5465) came out at 98.3%.
For `C[C@@H]1OC(=O)[C@H]2C[C@H]3CCCC[C@@H]3[C@@H](/C=C/[C@H]3CCC[C@H](C)N3C)[C@@H]12` [(+)-Himbacine], the remaining activity at 3.75 µM in experiment [1] (Well no.=706) was determined as 98.4%. The remaining activity at 1.25 µM in experiment [2] (Well no.=706) turned out to be 99.2%.
As to `O[C@H]1[C@H](O)[C@@H](O)[C@H](O)[C@@H](O)[C@H]1O` [i-Inositol], in experiment [1] (Well no.=6495), the remaining activity at 3.75 µM was 101%. Further, the remaining activity at 1.25 µM in experiment [2] (Well no.=6495) was determined as 98.4%.
For `O=c1onc2n1-c1cc(Br)ccc1OC2` [NS 2028], the remaining activity at 3.75 µM in experiment [1] (Well no.=990) is 99.6%. Also, in experiment [2] (Well no.=990), the remaining activity at 1.25 µM was 99.8%.
Take `Cc1[nH]c2ccccc2c1CC(=O)N[C@@H](Cc1ccccc1)C(=O)N(C)c1ccccc1` [(S)-N-methyl-2-(2-(2-methyl-1H-indol-3-yl)acetamido)-N,3-diphenylpropanamide]: the remaining activity at 3.75 µM in experiment [1] (Well no.=5917) was 103%. Moreover, in experiment [2] (Well no.=5917), the remaining activity at 1.25 µM is 106%.
In the case of `O=C1CCc2c(ccc3ccccc23)O1` [Splitomicin], in experiment [1] (Well no.=5525), the remaining activity at 3.75 µM worked out at 120%. Also, the remaining activity at 1.25 µM in experiment [2] (Well no.=5525) is 105%.
As for `CSc1ccc2c(c1)C(N1CCN(C)CC1)Cc1ccccc1S2` (centres unmarked) [Methiothepin mesylate], in experiment [1] (Well no.=801), the remaining activity at 3.75 µM is 101%. For the same molecule, the remaining activity at 1.25 µM in experiment [2] (Well no.=801) is 99.9%.
Take `CCCCC/C=C\C\C=C/C=C/C=C/[C@@H](SCC(NC(C)=O)C(=O)O)[C@@H](O)CCCC(=O)O` (some centres unmarked) [N-Acetyl-leukotriene E4]: the remaining activity at 3.75 µM in experiment [1] (Well no.=4435) stood at 102%. Further, the remaining activity at 1.25 µM in experiment [2] (Well no.=4435) was found to be 101%.
As for `CCCCC1=NC2(CCCC2)C(=O)N1Cc1ccc(-c2ccccc2-c2nnn[nH]2)cc1` [2-butyl-3-{[2'-(1H-tetraazol-5-yl)[1,1'-biphenyl]-4-yl]methyl}-1,3-diazaspiro[4.4]non-1-en-4-one], the remaining activity at 3.75 µM in experiment [1] (Well no.=5468) is 104%. In addition, the remaining activity at 1.25 µM in experiment [2] (Well no.=5468) was 98%.
Turning to `CCCCC/C=C\C/C=C\C/C=C\C/C=C\CCCC(=O)O` [Arachidonic acid], the remaining activity at 3.75 µM in experiment [1] (Well no.=4301) amounted to 101%; in experiment [1] (Well no.=4446), 97.5%. For the same molecule, the remaining activity at 1.25 µM in experiment [2] (Well no.=4301) stood at 104%; in experiment [2] (Well no.=4446), 95.8%.
Take `CO[C@H]1C[C@@H]2CC[C@@H](C)[C@@](O)(O2)C(=O)C(=O)N2CCCC[C@H]2C(=O)O[C@H]([C@H](C)C[C@@H]2CC[C@@H](O)[C@H](OC)C2)CC(=O)[C@H](C)/C=C(\C)[C@@H](O)[C@@H](OC)C(=O)[C@H](C)C[C@H](C)/C=C/C=C/C=C/1C` [Rapamycin]: the results for the remaining activity at 3.75 µM in experiment [1] (Well no.=1557), in experiment [1] (Well no.=2555) and in experiment [1] (Well no.=3126) were 97.9%, 91.9% and 106%, respectively. For the same molecule, the values for the remaining activity at 1.25 µM in experiment [2] (Well no.=1557), in experiment [2] (Well no.=2555) and in experiment [2] (Well no.=3126) were 99.1%, 93.5% and 102%, respectively.
Consider `N[C@@H](Cc1ccc(N(CCCl)CCCl)cc1)C(=O)O` [Melphalan], for which the remaining activity at 3.75 µM in experiment [1] (Well no.=1112) turned out to be 94.4%. The remaining activity at 1.25 µM amounted to 94.4% in experiment [2] (Well no.=1112) and 100% in experiment [2] (Well no.=1953).
With `O=c1[nH]cc(CO)c(=O)[nH]1` [5-Hydroxymethyluracil], in experiment [1] (Well no.=6499), the remaining activity at 3.75 µM is 101%. Further, the remaining activity at 1.25 µM in experiment [2] (Well no.=6499) came out at 99.6%.
`NNC(N)=O` [Semicarbazide hydrochloride]: in experiment [1] (Well no.=1406), the remaining activity at 3.75 µM worked out at 99.4%. Also, the remaining activity at 1.25 µM in experiment [2] (Well no.=1406) was 99.7%.
For the molecule `CCC(=O)O[C@]1(C(=O)CCl)[C@@H](C)C[C@H]2[C@@H]3CCC4=CC(=O)C=C[C@]4(C)[C@@]3(F)[C@@H](O)C[C@@]21C` [Clobetasol propionate], the remaining activity at 3.75 µM in experiment [1] (Well no.=1924) was found to be 99.3%; in experiment [1] (Well no.=8301), 89.7%. The remaining activity at 1.25 µM in experiment [2] (Well no.=1924) was determined as 98.4%; in experiment [2] (Well no.=8301), 95.3%.
For `C=C1CC[C@H](O)C/C1=C/C=C1\CCC[C@]2(C)[C@@H]([C@H](C)/C=C/[C@H](C)C(C)C)CC[C@@H]12` [Vitamin D2 (Ergocalciferol)], the remaining activity at 3.75 µM in experiment [1] (Well no.=4684) turned out to be 100%. In experiment [2] (Well no.=4684), the remaining activity at 1.25 µM came out at 99.3%.
On to `NC(=O)c1ccc[n+]([C@@H]2O[C@H](COP(=O)([O-])O)[C@@H](O)[C@H]2O)c1` [_-Nicotinamide mononucleotide], for which the remaining activity at 3.75 µM in experiment [1] (Well no.=7735) came to 105%. In experiment [2] (Well no.=7735), the remaining activity at 1.25 µM turned out to be 102%.
With `O=C1C[C@@H](c2ccccc2)Oc2cc(O)cc(O)c21` [Pinocembrin], the remaining activity at 3.75 µM in experiment [1] (Well no.=3587) turned out to be 98.4%. Further, the remaining activity at 1.25 µM in experiment [2] (Well no.=3587) turned out to be 99.6%.
As to `CN(C(=O)c1c(O)c2ccccc2n(C)c1=O)c1ccccc1` [Roquinimex], the remaining activity at 3.75 µM in experiment [1] (Well no.=6160) was 96.9%. Also, in experiment [2] (Well no.=6160), the remaining activity at 1.25 µM was 103%.
On to `O=C1CSC(c2ccccc2Cl)c2cc(Cl)ccc2N1` (centres unmarked) [CGP-37157], for which the remaining activity at 3.75 µM in experiment [1] (Well no.=5845) came to 106%. Moreover, the remaining activity at 1.25 µM in experiment [2] (Well no.=5845) was 106%.
In the case of `Cc1cc(Cn2nnc3c(-c4ccco4)nc(N)nc32)ccc1N` [Vipadenant], the remaining activity at 3.75 µM in experiment [1] (Well no.=8603) was determined as 92.7%. The remaining activity at 1.25 µM in experiment [2] (Well no.=8603) came out at 95.2%.
For `CCc1ccc(CCOc2ccc(CC3SC(=O)NC3=O)cc2)nc1` (centres unmarked) [Pioglitazone], the remaining activity at 3.75 µM in experiment [1] (Well no.=1718) is 98%. The remaining activity at 1.25 µM in experiment [2] (Well no.=1718) is 98.7%.
